Measured values from US12029738B2, “Antiproliferative compounds and methods of use thereof” (Celgene Corporation, priority 2017, dated 2024).
Blank lines part the entries; values can stand above or below the compound they belong to.

Tests used:
OPM2 = assay: Cell proliferation assay (CTG, 120 h); assay type: cell-based; conditions: Homo sapiens, OPM-2
Procedure: (§1) Cell Culture Materials: Human multiple myeloma cell lines were purchased from the vendors and cultured at 37° C. with 5% CO2 in the media as indicated in Table 1. Lenalidomide and pomalidomide resistant cell lines were obtained by methods as generally described previously (Lopez-Girona et al Leukemia 2012; 26(11): 2335). All cell lines were kept in log phase, and cell density and viability were monitored by trypan blue exclusion using the Vi-cell XR cell viability analyzer (Beckman Coulter, Brea, CA).
(§2) Preparation of Solutions of Test Article: Compounds were plated into black 384-well plates (Corning Inc.) to a final DMSO volume of 0.1% assuming a maximal volume of 50 μL. A 10-point dose response starting at 10 μM with a 1:3 dilution was printed in duplicate by acoustic dispense using the EDC ATS-100 platform. Alternatively, the 10-point dose response starting at 10 μM with a 1:10 dilution, or starting at 100 nM with a 1:3 dilutions were used.
(§3) Cell Proliferation Assays: The effect of compounds on the proliferation/viability of the hematological cell lines (Table 1), was assessed after 120 h incubation using CTG (Promega), according to manufacturer's instructions. Hematological cell lines were dispensed into compound plates by a Multidrop Combi Reagent Dispenser (Thermo Scientific, Waltham, MA) at a concentration of 0.1×10^6 cells per mL in a 50 μL total volume. At 120 h, 25 μL per well of CTG was dispensed by a Multidrop Combi Reagent Dispenser and adenosine triphosphate (ATP) release by viable cells was measured as relative luminescence units after 30 minutes using the Envision platform.
(§4) Results. […] The MM cell lines selected for this study were lines sensitive and resistant to lenalidomide and/or pomalidomide (Table 1), two agents used in the clinic to treat myeloma patients. Proliferation was assessed using the CellTitre-Glo© assay. Results for cultures incubated with the compounds were normalized to results for control cultures for each cell line. The IC50 for inhibition of cell growth by the compounds was determined for each cell line using ActivityBase software.

[1] = test system: OPM2-P10 (pomalidomide-resistant); assay: Cell proliferation assay (CTG, 120 h); assay type: cell-based; conditions: Homo sapiens, read-out: OPM-2.P10 120 h IC50
Procedure: as §1, §2, §3, §4

NCI-H929 = assay: Cell proliferation assay (CTG, 120 h); assay type: cell-based; conditions: Homo sapiens
Procedure: as §1, §2, §3, §4

KMS34 = assay: Flow cytometry proliferation/apoptosis assay (120 h); assay type: cell-based, human; conditions: for IC50: Homo sapiens, KMS-34, KMS34, read-out: Antiproliferative Activity (Flow Cytometry) IC50; for induced apoptosis AUC (area under the dose response curve): KMS-34, scale 0-10000
Procedure: (§5) Methods. […] Using 5 mM stocks, compounds were pre-spotted into the appropriate wells of 96-well plates using a Hewlett-Packard D300 Digital Dispenser. Cells were added to 96-well plates using a Multidrop Combi Reagent Dispenser. After 5 days of treatment, flow cytometric analysis was used to determine the number of cells that were alive, dead, or apoptotic. After 5 days of treatment, cells were incubated with annexin V to stain exposed phosphatidylserine, an apoptotic cell-surface marker, and the vital dye 7-AAD, which is excluded from cells with intact cell membranes, and analyzed by flow cytometry (Attune®, Thermo Fisher). Analysis was then performed to determine the number of live cells (annexin V and 7-AAD double negative staining cells) and the percentage of apoptotic cells (annexin V positive cells) for each condition, relative to the DMSO control treated, was calculated. All described values were normalized to DMSO-only treated cells. All proliferation and apoptosis induction curves were processed and graphed as percent of control using XLFit (IDBS, Alameda, CA) and GraphPad Prism 7.03 (GraphPad Software, La Jolla, CA). The live cell count for every concentration was normalized to the DMSO control (considered as 100%) in Microsoft Excel to generate the proliferation curves. […] Similarly, for apoptosis analysis, the percentage of drug-induced apoptosis was calculated for all doses by combining both “early” (annexin V positive and 7-AAD negative) and “late” apoptosis (annexin V and 7-AAD positive) values and subtracting background values (cell treated with vehicle control DMSO). The AUC values for apoptosis curves were calculated by performing area under curve analysis on GraphPad Prism 7.03. The area under the dose-response curve (AUC) was calculated since it integrates potency and efficacy of the drugs to represent apoptosis into a single parameter. The IC50 values for Compound 2 and pomalidomide in the flow cytometry assays are presented Table 9.
(§6) The apoptosis induction effect of Compound 2 was assessed using flow cytometry after 120 h of treatment and compared with pomalidomide treatment. […] Each data point represents 2 independent experiments with at least two samples in each experiment. (Table 10).

NCI-H929-1051 = assay: as above; assay type: cell-based, human; conditions: for induced apoptosis AUC (area under the dose response curve): H929-1051, scale 0-10000; for IC50: Homo sapiens, NCI-H929-1051, read-out: Antiproliferative Activity (Flow Cytometry) IC50
Procedure: as §5, §6

EJM = assay: as above; assay type: cell-based, human; conditions: for IC50: Homo sapiens, read-out: Antiproliferative Activity (Flow Cytometry) IC50; for induced apoptosis AUC (area under the dose response curve): scale 0-10000
Procedure: as §5, §6

RPMI-8226 = assay: as above; assay type: cell-based, human; conditions: for IC50: Homo sapiens, read-out: Antiproliferative Activity (Flow Cytometry) IC50; for induced apoptosis AUC (area under the dose response curve): scale 0-10000
Procedure: as §5, §6

U266 = assay: as above; assay type: cell-based, human; conditions: for IC50: Homo sapiens, U-266, read-out: Antiproliferative Activity (Flow Cytometry) IC50; for induced apoptosis AUC (area under the dose response curve): scale 0-10000
Procedure: as §5, §6

OPM2-P10 = assay: as above; assay type: cell-based, human; conditions: for IC50: Homo sapiens, read-out: Antiproliferative Activity (Flow Cytometry) IC50; for induced apoptosis AUC (area under the dose response curve): scale 0-10000
Procedure: as §5, §6

ARH-77 = assay: as above; assay type: cell-based, human; conditions: for IC50: Homo sapiens, read-out: Antiproliferative Activity (Flow Cytometry) IC50; for induced apoptosis AUC (area under the dose response curve): scale 0-10000
Procedure: as §5, §6

KMS-11 = assay: as above; assay type: cell-based, human; conditions: for IC50: Homo sapiens, read-out: Antiproliferative Activity (Flow Cytometry) IC50; for induced apoptosis AUC (area under the dose response curve): scale 0-10000
Procedure: as §5, §6

L363 = assay: as above; assay type: cell-based, human; conditions: for IC50: Homo sapiens, L-363, read-out: Antiproliferative Activity (Flow Cytometry) IC50; for induced apoptosis AUC (area under the dose response curve): scale 0-10000
Procedure: as §5, §6

IM-9 = assay: as above; assay type: cell-based, human; conditions: for IC50: Homo sapiens, read-out: Antiproliferative Activity (Flow Cytometry) IC50; for induced apoptosis AUC (area under the dose response curve): scale 0-10000
Procedure: as §5, §6

CAG = assay: as above; assay type: cell-based, human; conditions: for IC50: Homo sapiens, read-out: Antiproliferative Activity (Flow Cytometry) IC50; for induced apoptosis AUC (area under the dose response curve): scale 0-10000
Procedure: as §5, §6

SK-MM-2 = assay: as above; assay type: cell-based, human; conditions: for IC50: Homo sapiens, SK-MM-2, read-out: Antiproliferative Activity (Flow Cytometry) IC50; for induced apoptosis AUC (area under the dose response curve): SKMM-2, scale 0-10000
Procedure: as §5, §6

SMILES: N#Cc1ccc(N2CCN(Cc3ccc(COc4cccc5c4CN(C4CCC(=O)NC4=O)C5=O)cc3)CC2)c(F)c1 (racemic) [Compound 1, 4-(4-(4-(((2-(2,6-dioxopiperidin-3-yl)-1-oxoisoindolin-4-yl)oxy)methyl)benzyl)piperazin-1-yl)-3-fluorobenzonitrile]
- IC50 (OPM2): < 0.5 nM
- IC50 [1]: 19 nM
- IC50 (NCI-H929): < 0.5 nM

SMILES: N#Cc1ccc(N2CCN(Cc3ccc(COc4cccc5c4CN([C@H]4CCC(=O)NC4=O)C5=O)cc3)CC2)c(F)c1 [Compound 2, (S)-4-(4-(4-(((2-(2,6-dioxopiperidin-3-yl)-1-oxoisoindolin-4-yl)oxy)methyl)benzyl)piperazin-1-yl)-3-fluorobenzonitrile]
- IC50 (KMS34): 0.45 nM
- induced apoptosis AUC (area under the dose response curve) (KMS34): 1614
- induced apoptosis AUC (area under the dose response curve) (NCI-H929-1051): 3968
- IC50 (NCI-H929-1051): 0.45 nM
- IC50 (EJM): 0.43 nM
- induced apoptosis AUC (area under the dose response curve) (EJM): 2591
- IC50 (RPMI-8226): 0.75 nM
- induced apoptosis AUC (area under the dose response curve) (RPMI-8226): 3245
- IC50 (U266): 0.19 nM
- induced apoptosis AUC (area under the dose response curve) (U266): 927.8
- IC50 (OPM2-P10): 1.81 nM
- induced apoptosis AUC (area under the dose response curve) (OPM2-P10): 1768
- IC50 (ARH-77): > 10000 nM
- induced apoptosis AUC (area under the dose response curve) (ARH-77): 709
- IC50 (KMS-11): 1.41 nM
- induced apoptosis AUC (area under the dose response curve) (KMS-11): 1270
- IC50 (L363): 0.16 nM
- induced apoptosis AUC (area under the dose response curve) (L363): 347
- IC50 (IM-9): 5570 nM
- induced apoptosis AUC (area under the dose response curve) (IM-9): 323.9
- IC50 (CAG): 0.12 nM
- induced apoptosis AUC (area under the dose response curve) (CAG): 5804
- IC50 (SK-MM-2): 0.82 nM
- induced apoptosis AUC (area under the dose response curve) (SK-MM-2): 3204
- IC50 (OPM2): 0.07 nM
- IC50 [1]: 4.3 nM
- IC50 (NCI-H929): 0.07 nM

- IC50 (NCI-H929-1051): 1950 nM
- IC50 (RPMI-8226): > 10000 nM
- IC50 (U266): 381 nM
- IC50 (SK-MM-2): > 10000 nM
SMILES: Nc1cccc2c1C(=O)N(C1CCC(=O)NC1=O)C2=O (stereo not drawn) [Pomalidomide, pomalidomide]
- IC50 (KMS34): > 10000 nM
- induced apoptosis AUC (area under the dose response curve) (KMS34): 429.7
- induced apoptosis AUC (area under the dose response curve) (NCI-H929-1051): 423
- IC50 (EJM): 2840 nM
- induced apoptosis AUC (area under the dose response curve) (EJM): 900
- induced apoptosis AUC (area under the dose response curve) (RPMI-8226): 1369
- induced apoptosis AUC (area under the dose response curve) (U266): 373
- IC50 (OPM2-P10): > 10000 nM
- induced apoptosis AUC (area under the dose response curve) (OPM2-P10): 108.7
- IC50 (ARH-77): > 10000 nM
- induced apoptosis AUC (area under the dose response curve) (ARH-77): 28.16
- IC50 (KMS-11): 5290 nM
- induced apoptosis AUC (area under the dose response curve) (KMS-11): 234.4
- IC50 (L363): > 10000 nM
- induced apoptosis AUC (area under the dose response curve) (L363): 293
- IC50 (IM-9): > 10000 nM
- induced apoptosis AUC (area under the dose response curve) (IM-9): 25.4
- IC50 (CAG): 1080 nM
- induced apoptosis AUC (area under the dose response curve) (CAG): 1561
- induced apoptosis AUC (area under the dose response curve) (SK-MM-2): 1033
